Columns and labels:
[1] = biological target: acetylcholine esterase (AChE) (Homo sapiens, UniProt P22303); experiment: Acetylcholine esterase inhibitory activity test; assay type: biochemical; conditions: 1000 nM; FIG. 11
From the text: Most of existing therapeutic agents for Alzheimer's disease have, as a target mechanism, the inhibitory activity for an acetylcholine esterase which is an enzyme for decomposing acetylcholine as a neurotransmitter. Namely, by inhibiting an acetylcholine esterase, the therapeutic agents for Alzheimer's disease increase an in vivo concentration of acetylcholine.

Water solubility = assay type: physicochemical
VGF gene = VGF gene expression in culture astrocyte (real time PCR); assay type: cell-based, mouse; conditions: 25 μM; from 8 hours to 24 hours after the addition; p<0.05 vs before the addition; calibrated to GAPDH
Experimental: By adding the cyclic peptide derivative of 25 μM to an astrocyte of the secondary subculture, the influence on expression of the gene of NGF, GDNF, VFGF-A, BDNF, and VGF as a representative neurotrophic factor was determined over time.
Except that a cell suspension of an astrocyte of the secondary subculture was prepared to have cell concentration of 3×10^5 cells/ml and the time for exposing the astrocyte to the above 25 μM cyclic peptide derivative was set at 0, 1, 2, 4, 8, 12, and 24 hours, the astrocyte was cultured in the same order as above <6>. As a control group, LG-D-MEM (0% FBS) not added with any cyclic peptide derivative was used.
Each astrocyte which has been exposed to the cyclic peptide derivative during each time described above was collected, and then, by using RNeasy Mini Kit (QIAGEN), extraction and purification of total RNA were carried out. The extracted total RNA was quantified by using Nano Photometer (IMPLEN). For the reverse transcription reaction, cDNA was synthesized by reacting 500 ng of total RNA with PrimeScript RT Master Mix (TaKaRa) at 37° C. for 15 minutes using GeneAmp PCR System 9600 (PERKIN ELMER), and the reaction was terminated by heating for 5 seconds at 85° C. […]

Sequence of acetylcholine esterase (AChE) (P22303 32-614): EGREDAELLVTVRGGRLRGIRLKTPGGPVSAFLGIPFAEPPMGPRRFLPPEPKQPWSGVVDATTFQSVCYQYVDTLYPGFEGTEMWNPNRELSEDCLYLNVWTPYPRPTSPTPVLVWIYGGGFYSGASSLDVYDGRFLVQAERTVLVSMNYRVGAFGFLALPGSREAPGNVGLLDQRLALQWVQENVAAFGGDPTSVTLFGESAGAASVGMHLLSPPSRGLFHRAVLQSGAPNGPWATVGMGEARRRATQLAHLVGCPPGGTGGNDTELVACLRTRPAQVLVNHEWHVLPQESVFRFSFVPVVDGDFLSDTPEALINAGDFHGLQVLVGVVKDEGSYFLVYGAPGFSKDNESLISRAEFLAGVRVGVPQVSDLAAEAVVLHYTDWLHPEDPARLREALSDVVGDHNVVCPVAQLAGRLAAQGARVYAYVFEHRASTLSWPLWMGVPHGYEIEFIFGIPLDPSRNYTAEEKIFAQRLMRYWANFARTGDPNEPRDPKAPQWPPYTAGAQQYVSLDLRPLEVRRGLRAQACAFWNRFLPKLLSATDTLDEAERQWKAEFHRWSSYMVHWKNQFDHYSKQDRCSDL

CCC1(C)Oc2cc(ccc2O)C(O)C(NC)C(=O)NC(C(C)C)C(=O)NC1C(=O)NC(CCC(=O)O)C(=O)O (stereo not drawn) [cyclic peptide derivative]
AChE inhibitory activity [1]: absolutely no AChE activity was observed
water solubility (Water solubility): water soluble
expression of the gene of VGF (VGF gene): increased

— patent US10654890B2, “Cyclic peptide derivative, method for preparing same and composition thereof” (priority 2014, dated 2020)
